Numbered stars: 1 amine (or outer) side, 2 acyl side, 3 side chain; on linkers, the order of the positions; unused ones are H or OH. Bridge positions count the residues as written; N and C are the ends. Square brackets hold non-standard residues; d marks the D form. Peptide text beside a SMILES is read from it. X6 = O=C([C@H](Cc1cccc(OCC=[*:3])c1)N[*:1])[*:2]; Phe(4-COOH) = N[C@@H](Cc1ccc(C(=O)O)cc1)C(=O)O; Phe(4-tBu) = CC(C)(C)c1ccc(C[C@H](N)C(=O)O)cc1; Trp(5-F) = N[C@@H](Cc1c[nH]c2ccc(F)cc12)C(=O)O; X1 = O=C(CCSCc1cccc(CSCCN[*:1])c1)[*:2]; 2Nal = N[C@@H](Cc1ccc2ccccc2c1)C(=O)O; mXylylene = c1cc(C[*:1])cc(C[*:2])c1; Bta = N[C@@H](Cc1csc2ccccc12)C(=O)O; X5 = O=C(CN(CCCCC=[*:3])[*:1])[*:2]; X4 = O=C(CN(CCCC=[*:3])[*:1])[*:2]; X7 = O=C(CN(CC=[*:3])[*:1])[*:2]; hCha = N[C@@H](CCC1CCCCC1)C(=O)O; Cha = N[C@@H](CC1CCCCC1)C(=O)O; αMeP = C[C@@]1(C(=O)O)CCCN1; Pip = O=C(O)[C@@H]1CCCCN1; hSer = N[C@@H](CCO)C(=O)O; Ahx = NCCCCCC(=O)O; Mpa = O=C(O)CCS
What was measured:
Assay type in all cases: binding
[1] = molecular target: human PCSK9 / human LDLR EGFa domain (Homo sapiens, UniProt Q8NBP7); test: TR-FRET assay of inhibition of the PCSK9-LDLR protein-protein interaction; details: 20 nM human PCSK9, 20 nM human LDLR EGFa domain, 2 hours room temperature
human PCSK9 / human LDLR EGFa domain, sequence (Q8NBP7 153-692): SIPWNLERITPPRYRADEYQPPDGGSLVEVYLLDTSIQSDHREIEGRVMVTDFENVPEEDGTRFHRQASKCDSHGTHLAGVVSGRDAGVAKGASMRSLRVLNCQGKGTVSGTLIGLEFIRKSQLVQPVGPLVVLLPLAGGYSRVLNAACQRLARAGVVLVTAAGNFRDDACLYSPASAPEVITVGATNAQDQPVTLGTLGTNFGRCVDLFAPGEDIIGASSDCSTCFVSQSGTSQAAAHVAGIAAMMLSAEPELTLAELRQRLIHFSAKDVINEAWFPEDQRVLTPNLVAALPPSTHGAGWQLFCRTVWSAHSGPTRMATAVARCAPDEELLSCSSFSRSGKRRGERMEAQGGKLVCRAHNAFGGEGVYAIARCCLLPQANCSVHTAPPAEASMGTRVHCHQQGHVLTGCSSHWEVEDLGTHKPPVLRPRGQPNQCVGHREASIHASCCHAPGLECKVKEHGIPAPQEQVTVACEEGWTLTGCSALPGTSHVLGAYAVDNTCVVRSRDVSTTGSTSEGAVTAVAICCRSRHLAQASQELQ
In short: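 Readout is the TR-FRET signal between europium anti-6×His on his-tagged LDLR EGFa domain and Ulight streptavidin on biotinylated PCSK9, both proteins at 20 nM and both detection reagents at 5 nM. Incubation lasted 2 hours at room temperature; compounds were run in dose-response with a 4-parameter fit.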

[2] = molecular target: T1, PCSK9 (Homo sapiens, UniProt Q8NBP7); test: PCSK9 Alexa FRET Standard assay (displacement of AlexaFluor647 tagged cyclic peptide Reagent A); details: 0.5 nM PCSK9, 20 nM AF cyclic peptide Reagent A
T1 construct: biotin (biotinylated)
T1 sequence (Q8NBP7 153-692): as above
Protocol: A solution containing 1 nM biotinylated PCSK9+2.5 nM Lance Streptavidin Europium (Strep-Eu) was made in 50 mM HEPES pH 7.4, 0.15 M NaCl, 5 mM CaCl2), 0.01% BSA, and 0.01% Surfactant P20. A separate solution containing 40 nM of the AlexaFluor tagged cyclic peptide was made in the same buffer system. An Echo was used to transfer 0.750 ul of compound to an assay plate followed by the addition of 15 ul of PCSK9+Stept-Eu and 15 ul of AF peptide. The final assay volume was 30.750 ul containing 0.5 nM PCSK9, 1.25 nM Strep-Eu, and 20 nM AF cyclic peptide. The reaction was incubated at room temperature for at least two hours prior to fluorescence measurements using an Envision Multilabel Reader. IC50 values were determined by fitting data to a sigmoidal dose-response curve using nonlinear regression. Ki was then calculated from the IC50 and the KD of AF cyclic peptide. Counts (B-counts) of the europium-labeled PCSK9 were followed to observe if compounds were […]. A fall off of the B-counts likely indicated a false positive of inhibition. Data from this procedure was reported as “A=‘numerical value’ (nanomolar)”

[3] = molecular target: T1, PCSK9; test: PCSK9 Alexa FRET Plus assay (displacement of AlexaFluor647 tagged cyclic peptide Reagent B); details: 0.5 nM PCSK9, 960 nM AF cyclic peptide Reagent B
Protocol: A solution containing 1 nM biotinylated PCSK9+2.5 nM Lance Streptavidin Europium (Strep-Eu) was made in 50 mM HEPES pH 7.4, 0.15 M NaCl, 5 mM CaCl2), 0.01% BSA, and 0.01% Surfactant P20. A separate solution containing 1920 nM of the AlexaFluor tagged cyclic peptide was made in the same buffer system. An Echo was used to transfer 0.075 ul of compound plus 0.675 ul of DMSO to each well of an assay plate followed by the addition of 15 ul of PCSK9+Stept-Eu and 15 ul of AF peptide. The final assay volume was 30.750 ul containing 0.5 nM PCSK9, 1.25 nM Strep-Eu, and 960 nM AF cyclic peptide. The reaction was incubated at room temperature for at least two hours prior to fluorescence measurements using an Envision Multilabel Reader. IC50 values were determined by fitting data to a sigmoidal dose-response curve using nonlinear regression. Ki was then calculated from the IC50 and the KD of AF cyclic peptide. Counts (B-counts) of the europium-labeled PCSK9 were followed to observe if compounds were adversely affecting PCSK9. A fall off of the B-counts likely indicated a false positive of inhibition. Data from this procedure was reported as “P=‘numerical value’ (nanomolar)”

SMILES | IC50 [1] [nM] | IC50 [2] [nM] | IC50 [3] [nM]
C[C@@H]1NC(=O)[C@@H]2CCCN2C(=O)[C@H](Cc2ccc(C(C)(C)C)cc2)NC(=O)[C@H](Cc2c[nH]c3ccc(F)cc23)NC(=O)CNC(=O)[C@H](CCCCN)NC(=O)CCSCc2cccc(c2)CSC[C@@H](C(N)=O)NC(=O)[C@@H]2CCCN2C(=O)[C@H](Cc2ccc(O)cc2)NC1=O [Compound 016] ([Mpa]KG[Trp(5-F)][Phe(4-tBu)]PAYPC-NH2; linker 1-10 via mXylylene) | 1 to 100 | 1 to 100 | 1 to 100
C[C@@H]1NC(=O)[C@@H]2CCCN2C(=O)[C@H](Cc2csc3ccccc23)NC(=O)[C@H](Cc2c[nH]c3ccc(F)cc23)NC(=O)CNC(=O)[C@H](CCCCN)NC(=O)CCSCc2cccc(c2)CSC[C@@H](C(N)=O)NC(=O)[C@@H]2CCCN2C(=O)[C@H](Cc2ccc(O)cc2)NC1=O [Compound 024] ([Mpa]KG[Trp(5-F)][Bta]PAYPC-NH2; linker 1-10 via mXylylene) | 1 to 100 | 1 to 100 | 1 to 100
C[C@@H]1NC(=O)[C@@H]2CCCN2C(=O)[C@H](CC2CCCCC2)NC(=O)[C@H](Cc2c[nH]c3ccc(F)cc23)NC(=O)CNC(=O)[C@H](CCCCN)NC(=O)CCSCc2cccc(c2)CSC[C@@H](C(N)=O)NC(=O)[C@@H]2CCCN2C(=O)[C@H](Cc2ccc(O)cc2)NC1=O [Compound 025] ([Mpa]KG[Trp(5-F)][Cha]PAYPC-NH2; linker 1-10 via mXylylene) | 1 to 100 | 1 to 100 | 1 to 100
C[C@@H]1NC(=O)[C@@H]2CCCN2C(=O)[C@H](CCC2CCCCC2)NC(=O)[C@H](Cc2c[nH]c3ccc(F)cc23)NC(=O)CNC(=O)[C@H](CCCCN)NC(=O)CCSCc2cccc(c2)CSC[C@@H](C(N)=O)NC(=O)[C@@H]2CCCN2C(=O)[C@H](Cc2ccc(O)cc2)NC1=O [Compound 026] ([Mpa]KG[Trp(5-F)][hCha]PAYPC-NH2; linker 1-10 via mXylylene) | 1 to 100 | 1 to 100 | 100 to 500
C[C@@H]1NC(=O)CCSCc2cccc(c2)CSCCNC(=O)[C@@H]2CCCN2C(=O)[C@H](Cc2ccccc2)NC(=O)[C@H](C)NC(=O)[C@@H]2CCCN2C(=O)[C@H](Cc2c[nH]c3ccc(F)cc23)NC(=O)[C@H](Cc2c[nH]c3ccc(F)cc23)NC(=O)[C@@H](C)NC1=O [Compound 062] (cyclo(AFP[X1]A[dA][Trp(5-F)][Trp(5-F)]P)) | 1 to 100 | 100 to 1000 | 1 to 100
C[C@@H]1NC(=O)CCSCc2cccc(c2)CSCCNC(=O)[C@@H]2CCCN2C(=O)[C@H](Cc2ccc3ccccc3c2)NC(=O)[C@H](C)NC(=O)[C@@H]2CCCCN2C(=O)[C@H](Cc2c[nH]c3ccc(F)cc23)NC(=O)[C@H](Cc2c[nH]c3ccc(F)cc23)NC(=O)[C@@H](C)NC1=O [Compound 089] (cyclo([2Nal]P[X1]A[dA][Trp(5-F)][Trp(5-F)][Pip]A)) | 1 to 100 | 1 to 100 | 1 to 100
NCCCC[C@@H]1NC(=O)CCSCc2cccc(c2)CSC[C@@H](C(N)=O)NC(=O)[C@@H]2CCCN2C(=O)[C@H](Cc2ccc(O)cc2)NC(=O)[C@H](Cc2cnc[nH]2)NC(=O)[C@H](CCO)NC(=O)[C@H](Cc2c[nH]c3ccc(F)cc23)NC(=O)[C@H](Cc2c[nH]c3ccc(F)cc23)NC(=O)CNC1=O [Compound 117] ([Mpa]KG[Trp(5-F)][Trp(5-F)][hSer]HYPC-NH2; linker 1-10 via mXylylene) | 100 to 1000 | 1 to 100 | –
COc1ccc(C[C@@H]2NC(=O)[C@H](C)NC(=O)CN3C/C=C\COc4cccc(c4)C[C@H](NC(=O)CNC(=O)CCCCCNC(=O)c4ccc(cc4)C[C@@H](C(N)=O)NC(=O)[C@]4(C)CCCN4C2=O)C(=O)N[C@@H](Cc2c[nH]c4ccc(F)cc24)C3=O)cc1 [Compound 121] ([Ahx]G[X6][Trp(5-F)][X7]AY(Me)[αMeP][Phe(4-COOH)]-NH2; staple (Z) 3-5; lactam N-9) | 100 to 1000 | 1 to 100 | –
COc1ccc(C[C@@H]2NC(=O)[C@H](C)NC(=O)CN3CCCC/C=C\CCCN(CC(=O)N[C@@H](Cc4c[nH]c5ccc(F)cc45)C3=O)C(=O)CNC(=O)CCCCCNC(=O)c3ccc(cc3)C[C@@H](C(N)=O)NC(=O)[C@]3(C)CCCN3C2=O)cc1 [Compound 122] ([Ahx]G[X4][Trp(5-F)][X5]AY(Me)[αMeP][Phe(4-COOH)]-NH2; staple (Z) 3-5; lactam N-9) | 1000 to 12100 | 100 to 1000 | –
COc1ccc(C[C@@H]2NC(=O)[C@H](C)NC(=O)CN3CCCCCCCCCN(CC(=O)N[C@@H](Cc4c[nH]c5ccc(F)cc45)C3=O)C(=O)CNC(=O)CCCCCNC(=O)c3ccc(cc3)C[C@@H](C(N)=O)NC(=O)[C@]3(C)CCCN3C2=O)cc1 [Compound 123] | 100 to 1000 | 1 to 100 | –
COc1ccc(C[C@@H]2NC(=O)[C@H](C)NC(=O)CN3CCCCOc4cccc(c4)C[C@H](NC(=O)CNC(=O)CCCCCNC(=O)c4ccc(cc4)C[C@@H](C(N)=O)NC(=O)[C@]4(C)CCCN4C2=O)C(=O)N[C@@H](Cc2c[nH]c4ccc(F)cc24)C3=O)cc1 [Compound 124] | 100 to 1000 | 1 to 100 | –
COc1ccc(C[C@@H]2NC(=O)[C@H]([C@@H](C)O)NC(=O)CN3CCCCCOc4cccc(c4)C[C@@H](NC(=O)[C@@H](C)NC(=O)[C@H](C)NC(=O)CCSCc4cccc(c4)CSCCNC(=O)[C@]4(C)CCCN4C2=O)C(=O)N[C@@H](Cc2c[nH]c4ccc(F)cc24)C3=O)cc1 [Compound 125] | 100 to 1000 | 100 to 1000 | –
COc1ccc(C[C@@H]2NC(=O)[C@H]([C@@H](C)O)NC(=O)CN3CCCCOc4cccc(c4)C[C@H](NC(=O)[C@@H](C)NC(=O)[C@H](C)NC(=O)CCSCc4cccc(c4)CSCCNC(=O)[C@]4(C)CCCN4C2=O)C(=O)N[C@H](Cc2c[nH]c4ccc(F)cc24)C3=O)cc1 [Compound 126] | 1 to 100 | 1 to 100 | –
COc1ccc(C[C@@H]2NC(=O)[C@H](C)NC(=O)[C@@H]3CCC(=O)NCc4cccc(c4)C[C@H](NC(=O)CNC(C)=O)C(=O)N[C@@H](Cc4cn(c5ccc(F)cc45)Cc4cn(nn4)CC[C@@H](C(N)=O)NC(=O)[C@]4(C)CCCN4C2=O)C(=O)N3)cc1 [Compound 127] | 100 to 1000 | 1 to 100 | –
COc1ccc(C[C@@H]2NC(=O)[C@H](C)NC(=O)[C@@H]3CCCN3C(=O)[C@@H]3Cc4cn(c5ccc(F)cc45)Cc4cn(nn4)-c4c(cccc4CSCCC(=O)N[C@H](C)C(=O)NCC(=O)N[C@@H](Cc4c[nH]c5ccc(F)cc45)C(=O)N3)CSCCNC(=O)[C@]3(C)CCCN3C2=O)cc1 [Compound 128] | 100 to 1000 | 1 to 100 | –
COc1ccc(C[C@@H]2NC(=O)[C@H]([C@@H](C)O)NC(=O)[C@@H]3CCCN3C(=O)[C@H]3Cc4cn(c5ccc(F)cc45)Cc4cn(nn4)-c4cc(cc(c4)CSCCC(=O)N[C@@H](C)C(=O)N[C@H](C)C(=O)N[C@@H](Cc4c[nH]c5ccc(F)cc45)C(=O)N3)CSCCNC(=O)[C@]3(C)CCCN3C2=O)cc1 [Compound 129] | 1000 to 12100 | 1000 to 12100 | –
COc1ccc(C[C@@H]2NC(=O)[C@H]([C@@H](C)O)NC(=O)[C@H]3C[C@@H](F)CN3C(=O)[C@H]3Cc4cn(c5ccc(F)cc45)Cc4cn(nn4)-c4cc(cc(c4)CSCCC(=O)N[C@@H](C)C(=O)N[C@H](C)C(=O)N[C@@H](Cc4c[nH]c5ccc(F)cc45)C(=O)N3)CSCCNC(=O)[C@]3(C)CCCN3C2=O)cc1 [Compound 130] | – | 100 to 1000 | 100 to 500
COc1ccc(C[C@@H]2NC(=O)[C@H]([C@@H](C)OC)NC(=O)[C@H]3CCCN3C(=O)[C@H]3Cc4cn(c5ccc(F)cc45)Cc4cn(nn4)-c4cc(cc(c4)CSCCC(=O)N[C@@H](C)C(=O)N[C@H](C)C(=O)N[C@@H](Cc4c[nH]c5ccc(F)cc45)C(=O)N3)CSCCNC(=O)[C@]3(C)CCCN3C2=O)cc1 [Compound 131] | – | 1 to 100 | 1 to 100
